Assay [1] concerns the target Thymidylate synthase (Mus musculus) (UniProt P07607). In words: Inhibition of thymidylate synthetase in mouse L1210S cells. The assay is classed as cell-based.
Assay [2] deals with T1, Thymidylate synthase (Lactobacillus casei) (UniProt P00469).
T1 sequence (whole entry): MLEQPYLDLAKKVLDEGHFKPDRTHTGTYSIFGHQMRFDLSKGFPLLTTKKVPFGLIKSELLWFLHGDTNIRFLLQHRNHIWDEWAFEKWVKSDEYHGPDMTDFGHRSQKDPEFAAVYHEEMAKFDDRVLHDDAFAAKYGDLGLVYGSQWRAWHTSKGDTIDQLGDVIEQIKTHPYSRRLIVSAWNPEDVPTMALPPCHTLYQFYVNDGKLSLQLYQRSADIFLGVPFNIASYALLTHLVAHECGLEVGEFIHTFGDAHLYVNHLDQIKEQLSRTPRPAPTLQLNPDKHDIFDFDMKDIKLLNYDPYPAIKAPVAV
Kind of assay: Inhibition of thymidylate synthetase in Lactobacillus casei. The note with it: Lacticaseibacillus casei.

In assay [3] the target is T2, Dihydrofolate reductase (Mus musculus) (UniProt P00375).
T2 sequence (whole entry): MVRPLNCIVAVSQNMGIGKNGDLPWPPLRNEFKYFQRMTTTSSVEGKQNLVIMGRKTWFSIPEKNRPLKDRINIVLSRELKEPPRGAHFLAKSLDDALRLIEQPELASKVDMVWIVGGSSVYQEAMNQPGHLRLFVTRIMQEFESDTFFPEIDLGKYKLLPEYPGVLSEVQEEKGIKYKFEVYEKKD
In words: Inhibition of dihydrofolate reductase in mouse L1210R cells. The assay is classed as cell-based.

Assay [4] has as its target T3, Dihydrofolate reductase (Homo sapiens) (UniProt P00374).
T3 sequence (whole entry): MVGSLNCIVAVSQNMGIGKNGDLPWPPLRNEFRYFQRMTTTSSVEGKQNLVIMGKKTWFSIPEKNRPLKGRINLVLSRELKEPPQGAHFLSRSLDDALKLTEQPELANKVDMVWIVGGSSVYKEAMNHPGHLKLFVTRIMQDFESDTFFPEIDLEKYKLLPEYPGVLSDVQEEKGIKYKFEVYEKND
Description: Inhibition of dihydrofolate reductase in human acute lymphocytic leukemia cells

Chain of Thymidylate synthase (Mus musculus) (P07607 whole entry, looked up): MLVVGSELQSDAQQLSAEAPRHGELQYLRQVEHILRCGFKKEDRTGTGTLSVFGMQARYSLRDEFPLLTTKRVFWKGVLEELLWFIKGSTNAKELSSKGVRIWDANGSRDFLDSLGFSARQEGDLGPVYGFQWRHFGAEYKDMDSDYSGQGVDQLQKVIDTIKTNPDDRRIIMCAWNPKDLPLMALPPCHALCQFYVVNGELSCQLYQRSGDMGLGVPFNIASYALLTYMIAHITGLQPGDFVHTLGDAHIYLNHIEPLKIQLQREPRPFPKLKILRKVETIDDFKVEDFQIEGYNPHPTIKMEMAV

Take `CCOC(=O)c1ccc(CNc2ccc3nc(N)nc(N)c3c2C)cc1`: the log(1/I50) amounted to 4 in assay [1], 5 in assay [2] and 8 in assay [3].

As to `NC(=O)CCC(NC(=O)c1ccc(NCc2ccc3nc(N)nc(N)c3c2)cc1)C(=O)O` (stereo unspecified), the log(1/I50) in assay [3] was 9.66; in assay [4], 10.1.

Consider `Cc1c(CNc2ccc(C(=O)NC(CC(=O)O)C(=O)O)cc2)ccc2nc(N)nc(N)c12` (stereo unspecified), for which the log(1/I50) in assay [1] was 6; in assay [2], 5; in assay [3] it was 8.87; in assay [4] it was 8.9.

Consider `Nc1nc(N)c2cc(CNc3cccc(Br)c3)ccc2n1`, for which the log(1/I50) was 8.64 in assay [3] and 8.66 in assay [4].

With `Nc1nc(N)c2cc(Oc3ccc(CNc4ccc(C(=O)NC(CC(=O)O)C(=O)O)cc4)cc3)ccc2n1` (stereo unspecified), the results for the log(1/I50) in assay [3] and in assay [4] were 7.67 and 7.77, respectively.

With `Nc1nc(N)c2cc(CNc3ccc(Cl)c(C(=O)NC(CC(=O)O)C(=O)O)c3)ccc2n1` (stereo unspecified), the figures for the log(1/I50) in assay [3] and in assay [4] were 8.37 and 7.92, respectively.

Turning to `Nc1nc(N)c2c(Cl)c(CNc3ccc(C(=O)NC(CCC(=O)O)C(=O)O)cc3)ccc2n1` (stereo unspecified), the results for the log(1/I50) in assay [3] and in assay [4] were 9.05 and 9.11, respectively.

As to `Nc1nc(N)c2cc(CNc3ccc(Cl)cc3)ccc2n1`, the values for the log(1/I50) in assay [3] and in assay [4] were 8.3 and 8.22, respectively.

On to `Nc1nc(N)c2cc(CNc3ccc(C(=O)NC(CC(=O)O)C(=O)O)cc3)ccc2n1` (stereo unspecified), for which the results for the log(1/I50) in assay [3] and in assay [4] were 8.76 and 8.94, respectively.

The values are drawn from ChEMBL document CHEMBL3227974, “Multivariate analysis and quantitative structure-activity relationships. Inhibition of dihydrofolate reductase and thymidylate synthetase by quinazolines” (J Med Chem, 1979).
